Type in all cases: in vivo, rat
One experiment has as its system caspase-3. Briefly: Dosage of caspase-3 activity in myocardial tissue, chronic ischemia (PMI) model. The following applies: PMI 72 h. As to the method:
(§1) The analyses were performed on 2 myocardial ischemia models: a chronic ischemia model and an acute ischemia model, followed by myocardial reperfusion after 30 min of occlusion.
(§2) Said models were realized with Wistar male rats (180-220 g). The coronary artery was ligatured according to Pfeffer et al protocol.
(§3) Briefly, the rats were anaesthetized by intraperitoneal administration of a mixture of Ketamine (150 mg/kg) and Xylazine (15 mg/kg), then intubated and mechanically ventilated. The animals were submitted to a left and median thoracotomy. An occlusion of the coronary artery was done with a silk wire (size: 7.0) at the more proximal point and below the auricle.
(§4) In the case of chronic ischemia, the ligature was maintained and the rib cage of the animal reclosed (PMI model for post myocardial infarction).
The animals were sacrificed by a pentobarbital lethal injection. […]
The supernatant was taken and divided into 2 tubes for of each sample. The tubes were placed at −80° C. before performing the spectrophotometric proteic dosage (BCA: cupper (II) sulphate+solution A of bicinchronic acid, DO measured at 550 nm) in transparent, with flat bottom, 96-well plates. […]

The subject of experiment [1] is ischemiated and re-perfused hearts. Briefly: Morphology of the hearts after ischemia-reperfusion. The following applies: 30 min occlusion, IP injection 15 min before re-perfusion, 10 days after infarct. Here is the method: In the case of reperfusion ischemia model (IR model), the silk wire was untied after 30 min of occlusion. The artery was then cleared and the myocardial territory reperfused. The control animals (sham operated) were submitted to the same surgery protocol as the above animals, but the silk wire was passed under the coronary without making any ligature.
The animals were sacrificed by a lethal injection of pentobarbital. The heart was excised and perfused 2-3 min. using Langendorf reverse route and a calcium-free washing solution (NaCl 117, KCl 5.7, NaHCO3 4.4, KH2PO4 1.5, MgCl2 1.7, HEPES 21, glucose 11, taurine 20, pH 7.2 adjusted to NaOH). The solution was then replaced by a PBS solution at 4% of PFA (about 10 ml). The heart was immersed in this fixation solution for about 1 h, and then washed with PBS 4%.
The animals were submitted to an occlusion of the left coronary artery during 30 min.
15 min before the re-perfusion, the animals were treated by an IP injection of D1 or DMSO. The animals were sacrificed after 72 h, 10 days after re-perfusion for an histological analysis of the hearts. The morphology of the hearts (PFA fixed 4%) 10 days after infarct is illustrated by FIG. 7.

The subject of experiment [2] is rats with permanent ligature of the left coronary artery (PMI). Briefly: Survival of animals after chronic ischemia (PMI). Particulars: intraperitoneal injection 5-15 min before occlusion. Here is the method: as §1, §2, §3, §4
The effect of the blocking of the caspase activity by Q-VD-OPH or by D1 on animals survival […] after infarction are given on FIG. 3. (A) over a period of 140 days; (B) the injection of the inhibitors or vehicle (DMSO) was carried out by intraperitoneal route 5-15 min before the occlusion of the coronary artery.
The animals having undergone a permanent ligature of the left coronary artery (PMI) were maintained alive during 4-5 months before performing the in vivo and ex vivo functional exploration. The death of the animals during this period was followed up.

The source of these data is US20100184703A1, “USE OF PEPTIDE DERIVATIVES FOR TREATING PATHOLOGIES RESULTING FROM ISCHEMIA” (CHIESI FARMACEUTICI S.p.A., priority 2007, published 2010).

Peptide text beside a SMILES is read from it. * marks the point of attachment. X1 = COC(=O)CC(N*)C(=O)COc1c(F)cccc1F; Quinaldoyl = O=C(c1ccc2ccccc2n1)*

Consider `COC(=O)CC(NC(=O)[C@H](C)NC(=O)[C@@H](NC(=O)[C@H](CC(=O)OC)NC(=O)[C@@H](NC(=O)c1ccc2ccccc2n1)C(C)C)C(C)C)C(=O)COc1c(F)cccc1F` (stereo partly drawn) [D1, (3S,6S,9S,12S)-methyl 15-(2-(2,6-difluorophenoxy)acetyl)-3,9-diisopropyl-6-(2-methoxy-2-oxoethyl)-12-methyl-1,4,7,10,13-pentaoxo-1-(quinolin-2-yl)-2,5,8,11,14-pentaazaheptadecan-17-oate] (Quinaldoyl-VD(OMe)VA-X1), for which the caspase-3 activity result in the experiment with caspase-3 (pre-treated rats, 0.01 or 1 mg/kg) is given as “inhibition of the caspase-3 activity”. Also, the caspase-3 basal activity entry in the experiment on caspase-3 (right ventricular (RV)) is “weak inhibition”. Moreover, in experiment [1], the “heart size (cardiac hypertrophy)” value is “prevents cardiac hypertrophy”.

As to `CC(C)[C@H](NC(=O)c1ccc2ccccc2n1)C(=O)N[C@@H](CC(=O)O)C(=O)COc1c(F)cccc1F` [Q-VD-OPH], the “animal survival over about 140 days post-infarctus” value in experiment [2] is reported as “survival curve superimposes on the one of the PMI group”.
